Literature values, collected in paper PMC6962532 (Journal of the American Chemical Society, 2020).

What was measured:
AgrC-I = settings: for activity of native AIP signal on AgrC-I: cross-group interaction
AgrC-III = settings: cross-group interaction
AgrC-II = settings: cross-group interaction

**Q.** Which IC50 value (AgrC-I; AgrC-I, in words) does the source give for A-S-A-(C-A-A-Y-F) [AAA] here?
**A.** single-digit nanomolar

**Q.** With D-S-A-(C-A-S-Y-F) [AIP-I V3A] as the substance, how does the “antagonism potency relative to t-AIP-I” value (AgrC-I; AgrC-I) read?
**A.** approximately four-fold more potent

**Q.** With D-S-V-(C-A-S-Y-F) [AIP-I] as the substance, how does the “activity of native AIP signal on AgrC-III” value (AgrC-III) read?
**A.** inhibits

**Q.** And the “activity of native AIP signal on AgrC-II” value (AgrC-II)?
**A.** inhibits

**Q.** For N-A-A-K-Y-N-P-(C-A-S-Y-L) [AIP-III], which “activity of native AIP signal on AgrC-I” value (AgrC-I) is on record?
**A.** inhibit

**Q.** With N-A-S-K-Y-N-P-(C-S-N-Y-L) [AIP-II] as the substance, how does the “activity of native AIP signal on AgrC-I” value (AgrC-I) read?
**A.** inhibit
